Consider 33 compounds from patent US20240150377A1, “MODULATORS OF CYSTIC FIBROSIS TRANSMEMBRANE CONDUCTANCE REGULATOR” (VERTEX PHARMACEUTICALS INCORPORATED, priority 2020, published 2024).

Molecules are shown by their SMILES. Where two headings read alike, the source gives them in different places.

This experiment concerns the target CFTR (Homo sapiens, UniProt P13569). Description: Membrane potential dye, Enteroid Assay B. The class given is cell-based. The note with it: for Ent. B Max Activity: chloride transport as % of triple combination control (Enteroid Assay B); for EC50: read-out: Ent. B EC50. The procedure, abridged: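 Human intestinal enteroids were treated with compound in maintenance medium for 18-24 h at 37° C, then loaded with methyl oxonol membrane-potential dye (25 min, room temperature). Chloride transport was triggered in chloride-free buffer with 10 μM forskolin, 100 μM IBMX and 300 nM Compound III, fluorescence read 15 min; expressed as % of triple-combination control.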

Where [1] appears, read: Table 8, human enteroid cells, 18-24 hours, acute 10 μM forskolin and 300 nM ivacaftor.
Setting [2] is: Table 7, human enteroid cells, 18-24 hours, acute 10 μM forskolin and 300 nM ivacaftor.

CFTR, sequence (P13569 with tags, fused parts or gaps DEL508-508): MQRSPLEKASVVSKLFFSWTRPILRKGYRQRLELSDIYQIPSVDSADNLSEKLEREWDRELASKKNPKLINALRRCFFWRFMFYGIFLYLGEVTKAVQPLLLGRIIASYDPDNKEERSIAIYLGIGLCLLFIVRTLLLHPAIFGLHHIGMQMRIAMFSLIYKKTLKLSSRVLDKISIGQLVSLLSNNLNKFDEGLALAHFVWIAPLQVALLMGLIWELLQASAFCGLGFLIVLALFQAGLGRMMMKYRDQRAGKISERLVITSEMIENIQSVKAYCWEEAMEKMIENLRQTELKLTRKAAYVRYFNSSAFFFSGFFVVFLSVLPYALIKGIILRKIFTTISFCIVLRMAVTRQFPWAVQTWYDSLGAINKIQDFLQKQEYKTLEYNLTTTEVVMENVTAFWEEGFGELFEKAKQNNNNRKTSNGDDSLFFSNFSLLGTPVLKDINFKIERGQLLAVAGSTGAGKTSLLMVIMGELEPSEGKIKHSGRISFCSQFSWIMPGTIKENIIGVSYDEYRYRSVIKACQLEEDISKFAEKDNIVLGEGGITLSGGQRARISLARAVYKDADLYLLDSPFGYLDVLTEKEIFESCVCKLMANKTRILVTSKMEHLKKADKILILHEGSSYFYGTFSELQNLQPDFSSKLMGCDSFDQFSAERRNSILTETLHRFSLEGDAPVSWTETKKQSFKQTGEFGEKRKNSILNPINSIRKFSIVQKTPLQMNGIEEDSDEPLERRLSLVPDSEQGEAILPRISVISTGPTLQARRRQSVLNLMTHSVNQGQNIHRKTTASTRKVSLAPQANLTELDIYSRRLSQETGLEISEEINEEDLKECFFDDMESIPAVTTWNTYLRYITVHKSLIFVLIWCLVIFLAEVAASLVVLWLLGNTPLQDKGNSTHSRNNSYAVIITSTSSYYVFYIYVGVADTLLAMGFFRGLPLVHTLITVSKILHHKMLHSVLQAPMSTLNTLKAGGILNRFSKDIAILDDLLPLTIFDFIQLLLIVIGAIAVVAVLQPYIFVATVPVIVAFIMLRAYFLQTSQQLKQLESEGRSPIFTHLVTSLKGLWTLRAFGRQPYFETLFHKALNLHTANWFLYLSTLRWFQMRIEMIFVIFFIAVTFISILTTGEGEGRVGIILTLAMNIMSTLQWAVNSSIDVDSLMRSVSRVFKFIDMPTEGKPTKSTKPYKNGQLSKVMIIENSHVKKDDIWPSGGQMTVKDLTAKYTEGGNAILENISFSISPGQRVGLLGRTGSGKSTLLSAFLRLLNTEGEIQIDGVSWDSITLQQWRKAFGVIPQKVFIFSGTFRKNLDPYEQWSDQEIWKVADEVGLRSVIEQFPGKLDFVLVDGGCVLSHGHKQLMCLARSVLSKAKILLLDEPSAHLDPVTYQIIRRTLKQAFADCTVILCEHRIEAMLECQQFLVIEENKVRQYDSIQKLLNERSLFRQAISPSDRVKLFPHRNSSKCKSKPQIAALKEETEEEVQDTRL

Usually EC50 stands for the midpoint of the concentration-response curve. `Cc1cccc(C)c1-c1cc2nc(n1)NS(=O)(=O)c1cccc(c1)CN(CCCCO)[C@H](CC(C)C)CO2` [Compound 46, 4-[(11R)-6-(2,6-Dimethylphenyl)-11-isobutyl-2,2-dioxo-9-oxa-2λ^6-thia-3,5,12,19-tetrazatricyclo[12.3.1.14,8]nonadeca-1(18),4(19),5,7,14,16-hexaen-12-yl]butan-1-ol]: for the setting “Table 8”, the “Ent. B Max Activity” value was “+++ (+++ is >60%)”. Further, the EC50 under setting [1] is under 1 µM.

On to `Cc1cccc(C)c1-c1cc2nc(n1)NS(=O)(=O)c1cccc(c1)C(=O)N(Cc1ccc(C#CC(C)(C)C#N)cc1)[C@H](CC(C)(C)C)CO2` [Compound 790], for which, for the setting “Table 9”, the “Ent. B Max Activity (%)” value is given as “+++ (+++ is >600%)” and the half-maximal effective concentration (EC50) was under 1 µM.

With `Cc1cccc(C)c1-c1cc2nc(n1)NS(=O)(=O)c1cc(nn1C)C(=O)N(Cc1ccccc1)[C@H](CC(C)(C)C)CO2` [Compound 928], the “Ent. B Max Activity” value (Table 8) was “++ (++ is 30-60%)”. Also, under setting [1], the EC50 was under 1 µM.

For the compound `Cc1cccc(C)c1-c1cc2nc(n1)NS(=O)(=O)c1cccc(c1)C(=O)N(Cc1ccnc(N)c1)[C@H](CC(C)(C)C)CO2` [Compound 61, (11R)-12-[(2-Amino-4-pyridyl)methyl]-6-(2,6-dimethylphenyl)-11-(2,2-dimethylpropyl)-2,2-dioxo-9-oxa-2λ^6-thia-3,5,12,19-tetrazatricyclo[12.3.1.14,8]nonadeca-1(18),4(19),5,7,14,16-hexaen-13-one], under “Table 9”, the “Ent. B Max Activity (%)” value is “+++ (+++ is >600%)” and the EC50 is under 1 µM.

For the compound `Cc1cccc(C)c1-c1cc2nc(n1)NS(=O)(=O)c1cccc(c1)C(=O)N(Cc1ncccc1NC(=O)OC(C)C)[C@H](CC(C)(C)C)CO2` [Compound 392], where the note is “Table 9”, the “Ent. B Max Activity (%)” value is given as “+++ (+++ is >600%)” and the concentration for a half-maximal effect (EC50) was under 1 µM.

For `Cc1cccc(C)c1-c1cc2nc(n1)NS(=O)(=O)c1cccc(c1)C(=O)N(Cc1ccccn1)[C@H](CC(C)(C)C)CO2` [Compound 124, (11R)-6-(2,6-Dimethylphenyl)-11-(2,2-dimethylpropyl)-12-[(pyridin-2-yl)methyl]-9-oxa-2λ^6-thia-3,5,12,19-tetraazatricyclo[12.3.1.14,8]nonadeca-1(17),4,6,8(19),14(18),15-hexaene-2,2,13-trione], the “Ent. B Max Activity” value (Table 8) is recorded as “+++ (+++ is >60%)”. For the same compound, under setting [1], the EC50 is under 1 µM.

For the compound `Cc1cccc(C)c1-c1cc2nc(n1)NS(=O)(=O)c1cccc(c1)C(=O)N(CCOC(F)(F)F)[C@H](CC(C)C)CO2` [Compound 1103], where the note is “Table 7”, the “Ent. B Max Activity” value was “+++ (+++ is >60%)”. Also, the EC50 under setting [2] was under 1 µM.

As for `Cc1cccc(C)c1-c1cc2nc(n1)NS(=O)(=O)c1cccc(c1)C(=O)N(CC#N)[C@H](CC(C)C)CO2` [Compound 1104], the “Ent. B Max Activity” value (Table 7) is “+++ (+++ is >60%)”. Besides, the concentration giving a half-maximal response (EC50) under setting [2] is under 1 µM.

Turning to `Cc1cccc(C)c1-c1cc2nc(n1)NS(=O)(=O)c1cccc(c1)C(=O)N(CCCC(C)(C)O)[C@H](CC(C)(C)O)CO2` [Compound 662], the “Ent. B Max Activity” value (Table 8) is “+ (+ is <30%)”. Moreover, the EC50 under setting [1] fell in the range of 1 to 3 µM.

As to `Cc1cccc(C)c1-c1cc2nc(n1)NS(=O)(=O)c1cccc(c1)C(=O)N(Cc1ncc(Br)cn1)[C@H](CC(C)(C)C)CO2` [Compound 807], for the setting “Table 9”, the “Ent. B Max Activity (%)” value is “+++ (+++ is >600%)” and the EC50 is under 1 µM.

For the compound `Cc1cccc(C)c1-c1cc2nc(n1)NS(=O)(=O)c1cccc(c1)C(=O)N(Cc1cc(C(C)(C)O)n(C)n1)[C@H](CC(C)(C)C)CO2` [Compound 849], the “Ent. B Max Activity” value (Table 8) is “+++ (+++ is >60%)”. Besides, the EC50 under setting [1] is under 1 µM.

Regarding `Cc1cccc(C)c1-c1cc2nc(n1)NS(=O)(=O)c1cccc(c1)C(=O)N(CC13CCC(O)(CC1)CC3)[C@H](CC(C)(C)C)CO2` [Compound 800], where the note is “Table 9”, the “Ent. B Max Activity (%)” value was “+++ (+++ is >600%)” and the EC50 is under 1 µM.

For `Cc1cccc(C)c1-c1cc2nc(n1)NS(=O)(=O)c1cc(n(C)n1)C(=O)N(Cc1ccccn1)[C@H](CC(C)(C)C)CO2` [Compound 930], the “Ent. B Max Activity” value (Table 8) is listed as “+++ (+++ is >60%)”. Further, the concentration giving a half-maximal response (EC50) under setting [1] was under 1 µM.

On to `C=C(C)c1cnc(CN2C(=O)c3cccc(c3)S(=O)(=O)Nc3nc(cc(-c4c(C)cccc4C)n3)OC[C@H]2CC(C)(C)C)nc1` [Compound 1078], for which, where the note is “Table 9”, the “Ent. B Max Activity (%)” value is given as “+++ (+++ is >600%)” and the half-maximal effective concentration (EC50) is under 1 µM.

Regarding `Cc1cccc(C)c1-c1cc2nc(n1)NS(=O)(=O)c1cccc(c1)C(=O)N(CCCC(N)=O)[C@H](CC(C)C)CO2` [Compound 407], the “Ent. B Max Activity” value (Table 7) is on record as “+++ (+++ is >60%)”. Also, under setting [2], the EC50 lay in the range of 1 to 3 µM.

Turning to `Cc1cccc(C)c1-c1cc2nc(n1)NS(=O)(=O)c1cccc(c1)C(=O)N(CCN(C)C(=O)OC(C)C)[C@H](CC(C)C)CO2` [Compound 91, Isopropyl N-[2-[(11R)-6-(2,6-dimethylphenyl)-11-isobutyl-2,2,13-trioxo-9-oxa-2λ^6-thia-3,5,12,19-tetrazatricyclo[12.3.1.14,8]nonadeca-1(18),4(19),5,7,14,16-hexaen-12-yl]ethyl]-N-methyl-carbamate], the “Ent. B Max Activity” value (Table 7) was “+++ (+++ is >60%)”. Also, the EC50 under setting [2] was under 1 µM.

Take `Cc1cccc(C)c1-c1cc2nc(n1)NS(=O)(=O)c1cccc(c1)C(=O)N(CCCC(=O)N(C)C)[C@H](CC(C)C)CO2` [Compound 92, 4-[(11R)-6-(2,6-Dimethylphenyl)-11-isobutyl-2,2,13-trioxo-9-oxa-2λ^6-thia-3,5,12,19-tetrazatricyclo[12.3.1.14,8]nonadeca-1(18),4(19),5,7,14,16-hexaen-12-yl]-N,N-dimethyl-butanamide]: for the setting “Table 8”, the “Ent. B Max Activity” value is reported as “+++ (+++ is >60%)”. Further, the EC50 under setting [1] is under 1 µM.

For the compound `COCCCN1C(=O)c2cccc(c2)S(=O)(=O)Nc2nc(cc(-c3c(C)cccc3C)n2)OC[C@H]1CC(C)C` [Compound 980], the “Ent. B Max Activity” value (Table 8) was “+++ (+++ is >60%)”. The EC50 under setting [1] was under 1 µM.

For `Cc1cccc(C)c1-c1cc2nc(n1)NS(=O)(=O)c1cccc(n1)C(=O)N(Cc1ccccc1)[C@H](CC(C)(C)C)CO2` [Compound 1085], the “Ent. B Max Activity” value (Table 8) is reported as “+++ (+++ is >60%)”. The EC50 under setting [1] is under 1 µM.

With `Cc1cccc(C)c1-c1cc2nc(n1)NS(=O)(=O)c1cccc(c1)C(=O)N(CC(C)(C)O)[C@H](CC(C)C)CO2` [Compound 43, (11R)-6-(2,6-Dimethylphenyl)-12-(2-hydroxy-2-methyl-propyl)-11-isobutyl-2,2-dioxo-9-oxa-2λ^6-thia-3,5,12,19-tetrazatricyclo[12.3.1.14,8]nonadeca 1(18),4(19),5,7,14,16-hexaen-13-one], for the setting “Table 8”, the “Ent. B Max Activity” value is recorded as “+++ (+++ is >60%)”. For the same compound, under setting [1], the EC50 is under 1 µM.

On to `Cc1cccc(C)c1-c1cc2nc(n1)NS(=O)(=O)c1cccc(c1)C(=O)N(Cc1ccc(C(C)(C)O)cc1)[C@H](CC(C)(C)O)CO2` [Compound 663], for which, under “Table 8”, the “Ent. B Max Activity” value is recorded as “+++ (+++ is >60%)”. The concentration for a half-maximal effect (EC50) under setting [1] was under 1 µM.

For `Cc1cccc(C)c1-c1cc2nc(n1)NS(=O)(=O)c1cccc(c1)C(=O)N(CC1CC(C)(O)C1)[C@H](CC(C)(C)C)CO2` (stereo partly drawn) [Compound 665], the “Ent. B Max Activity” value (Table 8) is on record as “+++ (+++ is >60%)”. Besides, the EC50 under setting [1] was under 1 µM.

For the compound `Cc1cccc(C)c1-c1cc2nc(n1)NS(=O)(=O)c1cccc(n1)C(=O)N(Cc1cccnc1)[C@H](CC(C)(C)C)CO2` [Compound 1083], the “Ent. B Max Activity” value (Table 8) is “+++ (+++ is >60%)”. Also, the concentration for a half-maximal effect (EC50) under setting [1] was under 1 µM.

Take `Cc1cccc(C)c1-c1cc2nc(n1)NS(=O)(=O)c1cccc(c1)C(=O)N(Cc1cccnc1)[C@H](CC(C)(C)C)CO2` [Compound 1086]: the “Ent. B Max Activity” value (Table 8) is “+++ (+++ is >60%)”. Also, the half-maximal effective concentration (EC50) under setting [1] was under 1 µM.

As for `Cc1cccc(C)c1-c1cc2nc(n1)NS(=O)(=O)c1cccc(c1)C(=O)N(CCc1ccc(C(N)=O)cc1)[C@H](CC(C)(C)C)CO2` [Compound 396], under “Table 8”, the “Ent. B Max Activity” value was “++ (++ is 30-60%)”. For the same compound, the 50% effective concentration (EC50) under setting [1] is under 1 µM.

For the compound `Cc1cccc(C)c1-c1cc2nc(n1)NS(=O)(=O)c1cccc(c1)C(=O)N(Cc1ncc(F)cn1)[C@H](CC(C)(C)C)CO2` [Compound 804], under “Table 9”, the “Ent. B Max Activity (%)” value is reported as “+++ (+++ is >600%)” and the EC50 is under 1 µM.

Turning to `Cc1cccc(C)c1-c1cc2nc(n1)NS(=O)(=O)c1cccc(n1)C(=O)N(Cc1ccncn1)[C@H](CC(C)(C)C)CO2` [Compound 1091], the “Ent. B Max Activity” value (Table 8) is reported as “+++ (+++ is >60%)”. Besides, under setting [1], the half-maximal effective concentration (EC50) was under 1 µM.

As for `Cc1cccc(C)c1-c1cc2nc(n1)NS(=O)(=O)c1cccc(c1)C(=O)N(CC1CN(C(=O)CO)C1)[C@H](CC(C)(C)C)CO2` [Compound 319], under “Table 9”, the “Ent. B Max Activity (%)” value was “+ (+ is <300%)” and the EC50 is 3 to 30 µM.

Turning to `Cc1cccc(C)c1-c1cc2nc(n1)NS(=O)(=O)c1cccc(c1)C(=O)N(Cc1ccc(Oc3ncccn3)cc1)[C@H](CC(C)(C)C)CO2` [Compound 789], for the setting “Table 9”, the “Ent. B Max Activity (%)” value is “+++ (+++ is >600%)” and the 50% effective concentration (EC50) is under 1 µM.

Turning to `Cc1cccc(C)c1-c1cc2nc(n1)NS(=O)(=O)c1cccc(c1)C(=O)N(Cc1ncccc1N)[C@H](CC(C)(C)C)CO2` [Compound 390], under “Table 9”, the “Ent. B Max Activity (%)” value was “+++ (+++ is >600%)” and the concentration giving a half-maximal response (EC50) is under 1 µM.

Consider `Cc1cccc(C)c1-c1cc2nc(n1)NS(=O)(=O)c1cccc(c1)C(=O)N(Cc1ncccn1)[C@H](CCC(C)(C)O)CO2` [Compound 659], for which the “Ent. B Max Activity” value (Table 8) is “++ (++ is 30-60%)”. The EC50 under setting [1] was 1 to 3 µM.

Consider `Cc1cccc(C)c1-c1cc2nc(n1)NSc1cccc(c1)C(=O)N(Cc1ccc(C(C)(C)O)nc1)[C@H](CC(C)(C)C(F)(F)F)CO2` [Compound 320], for which, where the note is “Table 9”, the “Ent. B Max Activity (%)” value is recorded as “+++ (+++ is >600%)” and the EC50 is under 1 µM.

With `CC(=O)Nc1cccnc1CN1C(=O)c2cccc(c2)S(=O)(=O)Nc2nc(cc(-c3c(C)cccc3C)n2)OC[C@H]1CC(C)(C)C` [Compound 393], for the setting “Table 9”, the “Ent. B Max Activity (%)” value is given as “+++ (+++ is >600%)” and the concentration for a half-maximal effect (EC50) was under 1 µM.
